Series [1] can be described thus: Solubility of cenicriviroc mesylate. It is filed as physicochemical.
The target of another series is CCR5 (Homo sapiens, UniProt P51681). Put plainly: CCR5 receptor occupancy / internalization in PBMCs by flow cytometry. It is filed as cell-based. The method, then:
(§1) The capacity of each drug to inhibit CCR5 or CCR2 internalization was evaluated. Cell-surface expression of CCR5 and CCR2 was assessed by flow cytometry, and fluorescence values were converted into molecules of equivalent soluble fluorescence (MESF).

Series [2] deals with HIV-1. Kind of series: HIV-1 susceptibility to maraviroc, observed results. It is filed as cell-based. Conditions: HIV-1 (n = 4).
Series [3] concerns HIV-1. The note with it: HIV-1 (n = 43); Dorr et al. (2005); read-out: Median IC50; cited from earlier work.
In the next series the test system is CCR5-tropic HIV-1 BaL. Kind of series: PM-1 cells infected with HIV-1 BaL, supernatant P24 and viral load after 4 hours. Conditions: CVC 20 nM or MVC 50 nM. It is filed as cell-based. The protocol:
(§2) Early (strong-stop) and late (full-length) reverse transcript levels were measured by qPCR. […] P24 and viral load levels were measured by ELISA and qRT-PCR after 4 hours.

In the next series the test system is HIV-2 clinical isolates. Kind of series: HIV-2 phenotypic susceptibility, ANRS PBMC method. It is filed as cell-based. The protocol:
All patients were infected with HIV-2 group A. Tropism was determined phenotypically using Ghost(3) cell lines expressing CD4 receptor and one HIV coreceptor, CCR5 or CXCR4. Both Ghost(3) cell lines carries a humanized green fluorescent protein (GFP) gene, under the control of a HIV-2 LTR. […] Ghost(3) cells were provided by the NIH AIDS Reagent program.
Briefly, cell-free HIV-2 positive supernatant was serially diluted (1, 10^−1, and 10^−2) and incubated with PBMC for viral titration. Viruses were tested at a 100 TCID50 titration. Cells were pre-incubated with cenicriviroc or maraviroc at an appropriate concentration 1 hour before viral infection. Six serial dilutions of the antiretroviral drug were tested in quadruplicate. On day 4, viral replication was assessed by a specific viral load assay (Generic HIV-2 viral load, Biocentric, France).

The target in a further series is T1, CCR2 (Homo sapiens, UniProt P41597).
T1 construct: endogenous in cells; host or cells: monocytes within PBMCs from 5 HIV+ and 5 HIV- subjects
T1 sequence (P41597 1-360 isoform P41597-2): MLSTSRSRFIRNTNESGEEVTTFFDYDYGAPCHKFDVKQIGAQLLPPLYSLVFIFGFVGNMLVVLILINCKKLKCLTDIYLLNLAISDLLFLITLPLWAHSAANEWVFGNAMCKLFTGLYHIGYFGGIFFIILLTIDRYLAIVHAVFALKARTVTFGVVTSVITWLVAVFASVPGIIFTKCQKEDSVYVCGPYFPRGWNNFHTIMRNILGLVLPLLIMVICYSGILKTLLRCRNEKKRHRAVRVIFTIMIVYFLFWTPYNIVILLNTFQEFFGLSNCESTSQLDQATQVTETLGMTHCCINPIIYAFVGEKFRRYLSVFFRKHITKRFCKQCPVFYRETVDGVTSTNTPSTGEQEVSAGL
Kind of series: CCR2 receptor occupancy / internalization in PBMCs (monocytes) by flow cytometry. It is filed as cell-based. The method, then:
as §1

Series [4] relates to HIV-1. Kind of series: Study 202: virologic response (plasma HIV-1 RNA <50 copies/mL), Snapshot algorithm, ITT. It is filed as in vivo, human. The note with it: Week 24; EFV arm. The text has this: The primary efficacy endpoint was the percentage of subjects with plasma HIV-1 RNA <50 copies/mL at Week 24 (using the FDA Snapshot algorithm and the ITT population).
In series [5] the test system is HIV-1. Described as above. It is filed as in vivo, human. The note with it: for virologic non-response, subgroup with high baseline viral load (≧100,000 copies/mL): EFV.
Series [6] in a line: APRI and FIB-4 fibrosis scores, post-hoc analysis of Study 202. It is filed as in vivo, human. The method, then: Change in score category from baseline (BL) to Weeks 24 and 48 was assessed in patients with non-missing data. Correlations between changes from BL in APRI and FIB-4 scores, and MCP-1 (CCR2 ligand) and sCD14 (inflammatory biomarker) levels were evaluated.
Another series deals with HIV. Put plainly: Ex vivo intracellular HIV DNA (qPCR) in PBMCs of Study 202 subjects. The note with it: EFV 600 mg arm, Week 24. The protocol: as §2
[7] abbreviates: HIV-2 isolate 10-046, group A, R5.
[8] abbreviates: HIV-2 isolate 10-051, group A, R5.
[9] abbreviates: HIV-2 isolate 10-055, group A, X4.
Where [10] appears, read: HIV-2 isolate 10-056, group A, R5.
Setting [11] is: HIV-2 isolate 10-069, group A, Dual.
[12] abbreviates: HIV-2 isolate 10-074, group A, R5.
[13] abbreviates: mixed R5/X4 HIV-2 clinical isolate, first of two.
Where [14] appears, read: mixed R5/X4 HIV-2 clinical isolate, second of two.

Where a name gives a salt, the structure may show the parent alone. Read-outs that look alike come from different tables or passages of the source. Marks after values point to notes of the source that are not given here.

CCR5, sequence (P51681 whole entry): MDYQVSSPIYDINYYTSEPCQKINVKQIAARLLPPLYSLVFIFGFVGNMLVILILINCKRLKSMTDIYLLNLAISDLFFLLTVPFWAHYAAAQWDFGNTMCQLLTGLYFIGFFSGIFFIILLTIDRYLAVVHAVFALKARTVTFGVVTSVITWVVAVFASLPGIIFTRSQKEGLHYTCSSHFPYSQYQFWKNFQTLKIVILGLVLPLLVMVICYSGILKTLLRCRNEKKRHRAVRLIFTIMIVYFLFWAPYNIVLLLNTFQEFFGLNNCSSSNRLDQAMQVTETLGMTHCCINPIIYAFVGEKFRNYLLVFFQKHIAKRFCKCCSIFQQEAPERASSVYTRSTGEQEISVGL

`CCCCOCCOc1ccc(-c2ccc3c(c2)C=C(C(=O)Nc2ccc([S@@+]([O-])Cc4cncn4CCC)cc2)CCCN3CC(C)C)cc1` [cenicriviroc mesylate, (S)-8-[4-(2-Butoxyethoxy)phenyl]-1-isobutyl-N-(4-{[(1-propyl-1H-imidazol-5-yl)methyl]sulfinyl}phenyl)-1,2,3,4-tetrahydro-1-benzazocine-5-carboxamide monomethanesulfonoate]: the solubility entry in series [1] (99.5% ethanol) is recorded as “sparingly soluble”; in series [1] (acetonitrile, 1-octanol, tetrahydrofuran) it was “slightly soluble”; in [1] (aqueous solution at pH 3), “sparingly soluble”; in [1] (aqueous solution from pH 1 to 2), “freely soluble”; in series [1] (aqueous solution from pH 4 to 13 and in water), “practically insoluble”; in [1] (ethyl acetate and diethylether) it was “practically insoluble”. Moreover, the solubility result in series [1] (glacial acetic acid, methanol, benzyl alcohol, dimethylsulfoxide, N,N-dimethylformamide) was “freely soluble”; in series [1] (pyridine and acetic anhydride), “soluble”.

As to maraviroc [MVC], the “CCR5 receptor occupancy at saturation” value at CCR5 (CD4+ T cells) is about 86%; on CCR5 (CD8+ T cells), about 87%. Also, the “effective concentration at which saturation of CCR5 was reached” value at CCR5 (CD4+ T cells) and on CCR5 (CD8+ T cells) was 12.5 nM each time. For the same compound, at CCR5 (in the absence of RANTES, PBMCs), the “cell-surface expression of CCR5 (in words)” value is on record as “increased cell-surface expression of CCR5”. Also, the “median MPI” value worked out at 74% with HIV-1 [2]; 93% with HIV-2 clinical isolates (13 R5 HIV-2 clinical isolates); 93% in the series on HIV-2 clinical isolates (13 R5 HIV-2 clinical isolates, listed as maraviroc). In addition, the IC50 in the series with HIV-1 [2] (read-out: Median IC50) was 2.4 nM; in the series with HIV-1 [3], 0.4 nM; in the series on HIV-2 clinical isolates (read-out: Median IC50, HIV-2 (n = 13), Observed Results), 0.8 nM. Also, the “supernatant P24” value with CCR5-tropic HIV-1 BaL (0 hrs (baseline)) is 506 ng/mL; in the series on CCR5-tropic HIV-1 BaL (4 hrs), 520 ng/mL. The results for the viral load in the series with CCR5-tropic HIV-1 BaL (0 hrs) and in the series with CCR5-tropic HIV-1 BaL (4 hrs) were 1.19×10^10 copies/ml and 1.67×10^10 copies/ml, respectively. Moreover, the EC50 with HIV-2 clinical isolates (setting [7]) is 1.13 nM; with HIV-2 clinical isolates (setting [8]) it was 0.48 nM; in the series with HIV-2 clinical isolates (setting [9]), over 1000 nM; with HIV-2 clinical isolates (setting [10]), 0.58 nM; in the series with HIV-2 clinical isolates (setting [11]) it was over 1000 nM; in the series on HIV-2 clinical isolates (setting [12]), 0.68 nM. Also, the EC50 in the series on HIV-2 clinical isolates (X4 HIV-2 clinical isolate) was over 1000 nM; in the series on HIV-2 clinical isolates (setting [13]) it was 9.4 nM; in the series with HIV-2 clinical isolates (setting [14]), over 1000 nM; with HIV-2 clinical isolates (read-out: median EC50, 13 R5 HIV-2 clinical isolates) it was 0.8 nM. In addition, the “MPI (%)” value is given as 93% in the series with HIV-2 clinical isolates (setting [7]); 82% in the series with HIV-2 clinical isolates (setting [8]); 0% with HIV-2 clinical isolates (setting [9]); 90% in the series on HIV-2 clinical isolates (setting [10]); 12% in the series on HIV-2 clinical isolates (setting [11]); 100% in the series on HIV-2 clinical isolates (setting [12]). Also, the MPI turned out to be 0% in the series on HIV-2 clinical isolates (X4 HIV-2 clinical isolate), 55% with HIV-2 clinical isolates (setting [13]) and 12% with HIV-2 clinical isolates (setting [14]).

`CSc1ccc(C(=O)N[C@@H]2CCCC[C@@H]2NC(=O)CNC(=O)c2cc(C(F)(F)F)ccc2NC(=O)NC(C)C)cc1` [BMS-22, reference compound]: the “average concentration required to reach >80% receptor occupancy” value on CCR2 (CCR2, monocytes) came to 18 nM. Also, the “CCR2 cell-surface expression (in words)” value on CCR2 (in the absence of MCP-1, monocytes) is listed as “slightly increased CCR2 cell-surface expression”.

On to `O=C1Nc2ccc(Cl)cc2[C@@](C#CC2CC2)(C(F)(F)F)O1` [EFV, efavirenz, reference compound], for which, in the series with HIV-1 [4], the “Discontinued study due to AE or death” value is “(18%)” and the “HIV-1 RNA ≧50 but <400 copies/mL” value is “(4%)^f”. In addition, in the series on HIV-1 [5] (Week 24), the “virologic non-response, subgroup with high baseline viral load (≧100,000 copies/mL)” value is recorded as 25%. Moreover, the “virologic non-response, subgroup with high baseline viral load (≧100,000 copies/mL)” value with HIV-1 [5] (Week 48) is listed as 25%. In addition, the “Discontinued study due to AE or death” value with HIV-1 [5] (Week 48, EFV arm) was “(21%)”. In series [6] (Baseline), the “patients in APRI category 0.5-1.5” value is given as 4%, the “patients in APRI category <0.5” value amounted to 96% and the “patients in FIB-4 category <1.45” value worked out at 100%. Also, in series [6] (Week 24), the “APRI: Decreased 1 category from baseline” value came out at 5%, the “patients in APRI category <0.5” value was 100% and the “patients in FIB-4 category <1.45” value was determined as 100%. Also, in [6] (Week 48), the “APRI: Decreased 1 category from baseline” value came out at 6%, the “patients in APRI category <0.5” value came to 100%, the “patients in FIB-4 category 1.45-3.25” value was determined as 6% and the “patients in FIB-4 category <1.45” value is listed as 94%. In the series with HIV, the “Strong-stop HIV DNA decline (marker of HIV entry)” value is on record as “no decline”.

The values above are taken from patent US20170105969A1, “CENICRIVIROC FOR THE TREATMENT OF HIV-2 INFECTION” (Tobira Therapeutics, Inc., priority 2014, published 2017).
